# Legend:
# [1] = system: diarrhea induced by castor oil; experiment: Mouse model of diarrhea induced by castor oil; assay type: in vivo, Balb/c mice; conditions: 1 mg/kg; M ± m, n = 10; observation 4 hours
# Procedure: Balb/c mice, which starved for 24 hours, were given castor oil intragastrically. Then the animals were encaged into individual cages with a bottom covered with white paper, and time before the onset of diarrhea was noted. The observation time is 4 hours (J Pharm Pharmacol. 2015 February; 67(2):244-54).
# [2] = system: motility of the gastrointestinal tract; experiment: Model of irritable bowel syndrome: motility of the gastrointestinal tract (activated carbon); assay type: in vivo, nonlinear male mice
# Procedure: The effect on the motility of the gastrointestinal tract was studied on a model of irritable bowel syndrome in nonlinear male mice weighing 24-30 g. The animals were intragastrically injected with a solution of activated carbon (50 mg/ml, in a volume of 10 ml/kg) and the speed (in minutes) of the movement of activated coal through the intestines of animals. The compounds under study were intragastrically administered once 1 hour before the introduction of activated carbon. Drotaverine (6.7 mg/kg), Buscopan (3 mg/kg) and Trimedat (33 mg/kg) were used as reference drugs.
# model of Crohn's disease = experiment: Mouse model of Crohn's disease (TNBS); assay type: in vivo, male balb/c mice; conditions: for The portion of dead animals: TNBS, 7 days, 10 animals
# Procedure: The study was performed on male balb/c mice. Animals, which starved for 24 hours, were injected with 150 μl/mouse of TNBS solution in 50% ethanol into the rectal hole of the mouse to the depth of 4 cm using a 3.5 F catheter. Next, the mice were turned upside down and held for 60 seconds. 150 μl of the 50% ethanol solution was injected into the healthy control (intact animals). The study lasted 7 days. The development of pathology was assessed by the death of animals.
# indomethacin colitis = experiment: Model of colitis induced by indomethacin; assay type: in vivo, male Wistar rats; conditions: day 4
# Procedure: The study was performed on male Wistar rats, which were subcutaneously injected with an indomethacin solution in a dose of 9 mg/kg for two days running to induce colitis. The injection solution was prepared as follows: first, indomethacin was dissolved in 100% ethanol, then it was diluted in 5% NaHCO3 solution. On the 4th day after euthanasia, the stomach and intestine were removed from the animals in the CO2 chamber, then the caecum was excised, 10 cm from the ileum and large intestine was cut off, and 5 cm—from the caecum, to assess gross lesions (J Ethnopharmacol. 2004 February; 90(2-3): 195-204).
# [3] = system: imiquimod-induced psoriasis on the back; experiment: Mouse model of imiquimod-induced psoriasis on the back; assay type: in vivo
# Procedure: Psoriasis was simulated in female balb/c mice by applying Aldar cream (5% imiquimod) on a previously shaved skin back area of 3×4 cm daily 1 time per day for 15 days (J Immunol. 2009 May 1; 182(9):5836-45). Intact animals were applied with vaseline: 120 mg per the shaved back area.
# The assessment of the development of pathology was performed on the 10th, 12th, 13th and 15th day before the next application of Aldar cream according to the index: the thickness of the skin fold on the back. The thickness of the skin fold on the back was measured with a Digimatic MK-25 micrometer (Mitutoyo, Japan).
# [4] = system: imiquimod-induced ear psoriasis; experiment: Mouse model of imiquimod-induced ear psoriasis; assay type: in vivo, female balb/c mice; conditions: 0.05%, M ± m, n = 10
# Procedure: Psoriasis was simulated in female balb/c mice by applying Aldar cream (5% imiquimod) on the inner side of the right ear daily 1 time per day for 10 days (J Immunol. 2009 May 1; 182(9):5836-45). Vaseline was applied to intact animals: 20 mg on the right ear.
# The assessment of the development of pathology was performed on 2nd, 4th, 6th, 8th and 10th day before the next application of Aldar cream by measuring the thickness of the left and right ears.
# [5] = inducer alone (control group), 9 mg/kg subcutaneously two days running
compound,measurement,setting,value
"CN(C)C(=O)C(CCN1CCC(O)(c2ccc(Cl)cc2)CC1)(c1ccccc1)c1ccccc1 [Loperamide, reference compound]",The time of onset of diarrhea,[1],56.40 ± 5.14& min
"CCC(COC(=O)c1cc(OC)c(OC)c(OC)c1)(c1ccccc1)N(C)C.O=C(O)/C=C\C(=O)O (centres unmarked) [Trimedat, reference compound]",The evacuation speed of activated carbon,[2]; 33 mg/kg once intragastrically 1 hour before activated carbon,83.65 ± 2.42 min
C[C@]12C=CC(=O)C=C1CC[C@@H]1[C@@H]2[C@@H](O)C[C@@]2(C)[C@H]1CC[C@]2(O)C(=O)CO [Prednisolone],The portion of dead animals,"model of Crohn's disease; 5 mg/kg, 1 time per day",80%
same,The portion of dead animals,model of Crohn's disease; 10 mg/kg,60%
same,reduction of the mortality,model of Crohn's disease; summary of Table 4,20-40%
same,"Macroscopic assessment of the lesion, Caecum","indomethacin colitis; 2 mg/kg, M ± m, n = 10",0.3 ± 0.2& points
same,"Macroscopic assessment of the lesion, Ileum","indomethacin colitis; 2 mg/kg, M ± m, n = 10",0.6 ± 0.6& points
same,"Macroscopic assessment of the lesion, Large intestine","indomethacin colitis; 2 mg/kg, M ± m, n = 10",0.4 ± 0.2 points
same,"Macroscopic assessment of the lesion, Overall assessment","indomethacin colitis; 2 mg/kg, M ± m, n = 10",1.3 ± 0.9& points
"CCC(=O)O[C@]1(C(=O)CCl)[C@@H](C)C[C@H]2[C@@H]3CCC4=CC(=O)C=C[C@]4(C)[C@@]3(F)[C@@H](O)C[C@@]21C [Dermovate, clobetasol, reference compound]",The gain of the thickness of the back skin to the thickness before the start of the study,"[3]; 0.05%, day 10, M ± m, n = 10",−26.8%
same,toxic effect,"[3]; on the 12th day of the study, thinning the skin",total death of animals
same,The gain in the thickness of the right (affected) ear relatively day 0,[4]; day 2,18.9%
same,The gain in the thickness of the right (affected) ear relatively day 0,[4]; day 4,22.6%
same,The gain in the thickness of the right (affected) ear relatively day 0,[4]; day 6,24.6%
same,The gain in the thickness of the right (affected) ear relatively day 0,[4]; day 8,21.3%
same,The gain in the thickness of the right (affected) ear relatively day 0,[4]; day 10,16.5%
"CCCC[N+]1(C)[C@@H]2C[C@@H](OC(=O)[C@H](CO)c3ccccc3)C[C@H]1[C@@H]1O[C@@H]12 (some centres unmarked) [Buscopan, reference compound]",The evacuation speed of activated carbon,[2]; 3 mg/kg once intragastrically 1 hour before activated carbon,73.2 ± 2.87 min
"CCOc1ccc(/C=C2\NCCc3cc(OCC)c(OCC)cc32)cc1OCC [Drotaverine, reference compound]",The evacuation speed of activated carbon,[2]; 6.7 mg/kg once intragastrically 1 hour before activated carbon,105.85 ± 2.39 min
same,The time of onset of diarrhea,[1],43.60 ± 2.61& min
COc1ccc2c(c1)c(CC(=O)O)c(C)n2C(=O)c1ccc(Cl)cc1 [Indomethacin],"Macroscopic assessment of the lesion, Caecum",indomethacin colitis; [5],1.2 ± 0.4 points
same,"Macroscopic assessment of the lesion, Ileum",indomethacin colitis; [5],5.6 ± 1.2 points
same,"Macroscopic assessment of the lesion, Large intestine",indomethacin colitis; [5],1.2 ± 0.3 points
same,"Macroscopic assessment of the lesion, Overall assessment",indomethacin colitis; [5],8.0 ± 1.3 points
